Where “and” joins values, the source holds several entries; their conditions need not be identical. Equal entries are not always repeated.
Experiment: molar heat capacity at constant pressure
Settings: 101.33 kPa, Crystal, Small sample (50 mg) DSC

[Ca+2].[O]=[Mo](=[O])([O-])[O-] [calcium molybdate(VI)]
Settings | molar heat capacity at constant pressure
495.4 K | 135.5 J/K/mol
495.8 K | 135.8 J/K/mol
496.4 K | 135.6 J/K/mol
496.8 K | 135.8 J/K/mol
497.4 K | 135.6 J/K/mol
497.8 K | 135.9 J/K/mol
498.4 K | 135.7 J/K/mol
498.8 K | 136 J/K/mol
499.4 K | 135.8 J/K/mol
499.8 K | 136 J/K/mol
500 K | 136 J/K/mol
500.4 K | 135.9 J/K/mol
500.8 K | 136.1 J/K/mol
501.4 K | 136 J/K/mol
501.8 K | 136.1 J/K/mol
502.4 K | 136.1 J/K/mol
502.8 K | 136.1 J/K/mol
503.4 K | 136.2 J/K/mol
503.8 K | 136.2 J/K/mol
504.4 K | 136.2 J/K/mol
504.8 K | 136.2 J/K/mol
505.4 K | 136.3 J/K/mol
505.8 K | 136.3 J/K/mol
506.4 K | 136.3 J/K/mol
506.8 K | 136.4 J/K/mol
507.4 K | 136.4 J/K/mol
507.8 K | 136.5 J/K/mol
508.4 K | 136.5 J/K/mol
508.8 K | 136.5 J/K/mol
509.4 K | 136.6 J/K/mol
509.8 K | 136.5 J/K/mol
510 K | 136.6 J/K/mol
510.4 K | 136.6 J/K/mol
510.8 K | 136.6 J/K/mol
511.4 K | 136.7 J/K/mol
511.8 K | 136.7 J/K/mol
512.4 K | 136.8 J/K/mol
512.8 K | 136.8 J/K/mol
513.4 K | 136.9 J/K/mol
513.8 K | 136.9 J/K/mol
514.4 K | 137 J/K/mol
514.8 K | 136.9 J/K/mol
515.4 K | 137.1 J/K/mol
515.8 K | 137 J/K/mol
516.4 K | 137.1 J/K/mol
516.8 K | 137 J/K/mol
517.4 K | 137.2 J/K/mol
517.8 K | 137.1 J/K/mol
518.4 K | 137.3 J/K/mol
518.8 K | 137.2 J/K/mol
519.4 K | 137.3 J/K/mol
519.8 K | 137.3 J/K/mol
520 K | 137.3 J/K/mol
520.4 K | 137.4 J/K/mol
520.8 K | 137.3 J/K/mol
521.4 K | 137.5 J/K/mol
521.8 K | 137.4 J/K/mol
522.4 K | 137.6 J/K/mol
522.8 K | 137.5 J/K/mol
523.4 K | 137.7 J/K/mol
523.8 K | 137.6 J/K/mol
524.4 K | 137.7 J/K/mol
524.8 K | 137.6 J/K/mol
525.4 K | 137.8 J/K/mol
525.8 K | 137.7 J/K/mol
526.4 K | 137.8 J/K/mol
526.8 K | 137.7 J/K/mol
527.4 K | 137.9 J/K/mol
527.8 K | 137.7 J/K/mol
528.4 K | 137.9 J/K/mol
528.9 K | 137.8 J/K/mol
529.4 K | 138 J/K/mol
529.9 K | 137.8 J/K/mol
530 K | 137.9 J/K/mol
530.4 K | 138.1 J/K/mol
530.9 K | 137.8 J/K/mol
531.4 K | 138.1 J/K/mol
531.9 K | 137.8 J/K/mol
532.4 K | 138.2 J/K/mol
532.9 K | 137.9 J/K/mol
533.4 K | 138.2 J/K/mol
533.9 K | 138 J/K/mol
534.4 K | 138.3 J/K/mol
534.9 K | 138.1 J/K/mol
535.4 K | 138.3 J/K/mol
535.9 K | 138.2 J/K/mol
536.4 K | 138.4 J/K/mol
536.9 K | 138.3 J/K/mol
537.4 K | 138.5 J/K/mol
537.9 K | 138.4 J/K/mol
538.4 K | 138.5 J/K/mol
538.9 K | 138.5 J/K/mol
539.4 K | 138.6 J/K/mol
539.9 K | 138.7 J/K/mol
540 K | 138.4 J/K/mol
540.4 K | 138.7 J/K/mol
540.9 K | 138.8 J/K/mol
541.4 K | 138.7 J/K/mol
541.9 K | 138.8 J/K/mol
542.4 K | 138.8 J/K/mol
542.9 K | 138.8 J/K/mol
543.4 K | 138.8 J/K/mol
543.9 K | 138.9 J/K/mol
544.4 K | 138.9 J/K/mol
544.9 K | 138.9 J/K/mol
545.4 K | 138.9 J/K/mol
545.9 K | 138.9 J/K/mol
546.4 K | 139 J/K/mol
546.9 K | 138.9 J/K/mol
547.4 K | 139 J/K/mol
547.9 K | 139 J/K/mol
548.4 K | 139 J/K/mol
548.9 K | 139.1 J/K/mol
549.4 K | 139 J/K/mol
549.9 K | 139.2 J/K/mol
550 K | 139 J/K/mol
550.4 K | 139.1 J/K/mol
550.9 K | 139.3 J/K/mol
551.4 K | 139.1 J/K/mol
551.9 K | 139.5 J/K/mol
552.4 K | 139.2 J/K/mol
552.9 K | 139.6 J/K/mol
553.4 K | 139.2 J/K/mol
553.9 K | 139.7 J/K/mol
554.4 K | 139.3 J/K/mol
554.9 K | 139.8 J/K/mol
555.4 K | 139.3 J/K/mol
555.9 K | 139.8 J/K/mol
556.4 K | 139.4 J/K/mol
556.9 K | 139.8 J/K/mol
557.4 K | 139.5 J/K/mol
557.9 K | 139.8 J/K/mol
558.4 K | 139.5 J/K/mol
558.9 K | 139.8 J/K/mol
559.4 K | 139.6 J/K/mol
559.9 K | 139.9 J/K/mol
560 K | 139.5 J/K/mol
560.4 K | 139.7 J/K/mol
560.9 K | 139.9 J/K/mol
561.4 K | 139.7 J/K/mol
561.9 K | 140 J/K/mol
562.4 K | 139.8 J/K/mol
562.9 K | 140.2 J/K/mol
563.4 K | 139.8 J/K/mol
563.9 K | 140.4 J/K/mol
564.4 K | 139.9 J/K/mol
564.9 K | 140.6 J/K/mol
565.4 K | 139.9 J/K/mol
565.9 K | 140.7 J/K/mol
566.4 K | 139.9 J/K/mol
566.9 K | 140.8 J/K/mol
567.4 K | 139.9 J/K/mol
568 K | 140.8 J/K/mol
568.4 K | 140 J/K/mol
569 K | 140.9 J/K/mol
569.4 K | 140.1 J/K/mol
570 K | 140 J/K/mol and 141 J/K/mol
570.4 K | 140.2 J/K/mol
571 K | 141 J/K/mol
571.4 K | 140.2 J/K/mol
572 K | 141 J/K/mol
572.4 K | 140.3 J/K/mol
573 K | 141 J/K/mol
573.4 K | 140.3 J/K/mol
574 K | 141.1 J/K/mol
574.4 K | 140.4 J/K/mol
575 K | 141.2 J/K/mol
575.4 K | 140.4 J/K/mol
576 K | 141.2 J/K/mol
576.4 K | 140.5 J/K/mol
577 K | 141.3 J/K/mol
577.4 K | 140.6 J/K/mol
578 K | 141.3 J/K/mol
578.4 K | 140.7 J/K/mol
579 K | 141.2 J/K/mol
579.4 K | 140.7 J/K/mol
580 K | 140.5 J/K/mol and 141.2 J/K/mol
580.4 K | 140.8 J/K/mol
581 K | 141.2 J/K/mol
581.4 K | 140.8 J/K/mol
582 K | 141.3 J/K/mol
582.4 K | 140.8 J/K/mol
583 K | 141.3 J/K/mol
583.4 K | 140.9 J/K/mol
584 K | 141.4 J/K/mol
584.4 K | 140.9 J/K/mol
585 K | 141.6 J/K/mol
585.4 K | 141 J/K/mol
586 K | 141.7 J/K/mol
586.4 K | 141 J/K/mol
587 K | 141.8 J/K/mol
587.4 K | 141 J/K/mol
588 K | 141.9 J/K/mol
588.4 K | 141 J/K/mol
589 K | 142 J/K/mol
589.4 K | 141 J/K/mol
590 K | 141 J/K/mol and 142.1 J/K/mol
590.4 K | 141.1 J/K/mol
591 K | 142.1 J/K/mol
591.4 K | 141.2 J/K/mol
592 K | 142 J/K/mol
592.4 K | 141.2 J/K/mol
593 K | 142 J/K/mol
593.4 K | 141.2 J/K/mol
594 K | 142 J/K/mol
594.4 K | 141.2 J/K/mol
595 K | 142 J/K/mol
595.4 K | 141.2 J/K/mol
596 K | 142.1 J/K/mol

Reference: the NIST ThermoML archive (doi:10.1016/j.tca.2018.01.023)
